The nature of the experiment: Neuromodulatory activity in mouse cerebrocortical neurons assessed as inhibition of calcium oscillation. It counts as functional. The settings on record: Cerebral cortex neuron.
What is called IC50 is the concentration that gives 50% inhibition. Consider `CCC/C(=C\Cl)C/C=C/CCC(=O)NCCc1ccccc1` [CREDNERAMIDE A], for which the IC50 was determined as 4 µM. With `CCC/C(=C\Cl)C/C=C/CCC(=O)NCCC(C)C` [CREDNERAMIDE B], the IC50 was determined as 3.9 µM. Regarding `CCC/C(=C\Cl)C/C=C/CCC(=O)O` [CREDNERIC ACID], the IC50 was determined as 8.2 µM.

(Values after ChEMBL document CHEMBL1949583, “Credneramides A and B: neuromodulatory phenethylamine and isopentylamine derivatives of a vinyl chloride-containing fatty acid from cf. Trichodesmium sp. nov” (J Nat Prod, 2012).)
